Data from paper PMC6199744, “Development of Chemical Proteomics for the Folateome and Analysis of the Kinetoplastid Folateome” (ACS Infectious Diseases, 2018).
Like-named read-outs stand apart in the source and are kept apart here.

How the values were obtained:
Format in all cases: binding
[1] = target: T1, HeLa cell extract proteins (Homo sapiens, UniProt P11940)
T1 construct: endogenous in cells; host or cells: HeLa cell extract

[2] = target: T2, HeLa cell extract proteins (Homo sapiens, UniProt P16083)
T2 construct: endogenous in cells; host or cells: HeLa cell extract
T2 sequence (P16083 1-231): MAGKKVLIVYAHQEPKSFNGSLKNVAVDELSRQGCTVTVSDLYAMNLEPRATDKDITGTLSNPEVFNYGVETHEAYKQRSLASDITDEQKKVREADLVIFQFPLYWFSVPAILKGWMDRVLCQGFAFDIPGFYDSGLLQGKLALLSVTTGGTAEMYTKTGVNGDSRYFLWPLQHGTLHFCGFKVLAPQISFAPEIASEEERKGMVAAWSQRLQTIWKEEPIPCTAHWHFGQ

[3] = target: T3, HeLa cell extract proteins (Homo sapiens, UniProt P18669)
T3 construct: endogenous in cells; host or cells: HeLa cell extract
T3 sequence (P18669 whole entry): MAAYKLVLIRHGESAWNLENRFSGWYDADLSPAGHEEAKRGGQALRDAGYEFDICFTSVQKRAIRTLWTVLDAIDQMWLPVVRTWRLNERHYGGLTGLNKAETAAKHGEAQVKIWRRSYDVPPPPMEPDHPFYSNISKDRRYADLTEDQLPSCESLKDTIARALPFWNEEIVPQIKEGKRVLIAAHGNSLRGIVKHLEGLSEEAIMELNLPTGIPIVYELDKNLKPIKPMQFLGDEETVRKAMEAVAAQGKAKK

[4] = target: T4, HeLa cell extract proteins (Homo sapiens, UniProt P52907)
T4 construct: endogenous in cells; host or cells: HeLa cell extract

[5] = target: T5, HeLa cell extract proteins (Homo sapiens, UniProt Q15437)
T5 construct: endogenous in cells; host or cells: HeLa cell extract
T5 sequence (Q15437 whole entry): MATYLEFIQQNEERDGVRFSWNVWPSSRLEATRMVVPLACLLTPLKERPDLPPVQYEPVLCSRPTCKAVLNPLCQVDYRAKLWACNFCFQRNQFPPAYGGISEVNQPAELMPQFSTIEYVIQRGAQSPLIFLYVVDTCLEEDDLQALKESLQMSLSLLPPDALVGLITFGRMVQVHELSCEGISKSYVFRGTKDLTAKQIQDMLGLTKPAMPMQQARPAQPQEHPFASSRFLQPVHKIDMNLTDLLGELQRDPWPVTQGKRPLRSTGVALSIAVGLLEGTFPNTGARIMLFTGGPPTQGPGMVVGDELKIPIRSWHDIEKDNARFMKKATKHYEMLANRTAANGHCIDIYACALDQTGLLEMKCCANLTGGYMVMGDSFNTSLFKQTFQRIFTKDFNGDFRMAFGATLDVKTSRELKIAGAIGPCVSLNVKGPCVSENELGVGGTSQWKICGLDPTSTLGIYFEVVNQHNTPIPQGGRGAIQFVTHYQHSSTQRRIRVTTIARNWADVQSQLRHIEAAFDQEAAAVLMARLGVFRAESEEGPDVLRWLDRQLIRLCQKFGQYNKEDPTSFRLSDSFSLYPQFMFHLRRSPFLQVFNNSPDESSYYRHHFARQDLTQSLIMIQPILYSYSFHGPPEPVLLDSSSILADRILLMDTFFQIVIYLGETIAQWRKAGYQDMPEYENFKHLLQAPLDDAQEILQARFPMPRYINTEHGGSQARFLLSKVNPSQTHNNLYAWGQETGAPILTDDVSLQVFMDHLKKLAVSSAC

[6] = target: T6, HeLa cell extract proteins (Homo sapiens, UniProt Q7L8L6)
T6 construct: endogenous in cells; host or cells: HeLa cell extract
T6 sequence (Q7L8L6 28-764): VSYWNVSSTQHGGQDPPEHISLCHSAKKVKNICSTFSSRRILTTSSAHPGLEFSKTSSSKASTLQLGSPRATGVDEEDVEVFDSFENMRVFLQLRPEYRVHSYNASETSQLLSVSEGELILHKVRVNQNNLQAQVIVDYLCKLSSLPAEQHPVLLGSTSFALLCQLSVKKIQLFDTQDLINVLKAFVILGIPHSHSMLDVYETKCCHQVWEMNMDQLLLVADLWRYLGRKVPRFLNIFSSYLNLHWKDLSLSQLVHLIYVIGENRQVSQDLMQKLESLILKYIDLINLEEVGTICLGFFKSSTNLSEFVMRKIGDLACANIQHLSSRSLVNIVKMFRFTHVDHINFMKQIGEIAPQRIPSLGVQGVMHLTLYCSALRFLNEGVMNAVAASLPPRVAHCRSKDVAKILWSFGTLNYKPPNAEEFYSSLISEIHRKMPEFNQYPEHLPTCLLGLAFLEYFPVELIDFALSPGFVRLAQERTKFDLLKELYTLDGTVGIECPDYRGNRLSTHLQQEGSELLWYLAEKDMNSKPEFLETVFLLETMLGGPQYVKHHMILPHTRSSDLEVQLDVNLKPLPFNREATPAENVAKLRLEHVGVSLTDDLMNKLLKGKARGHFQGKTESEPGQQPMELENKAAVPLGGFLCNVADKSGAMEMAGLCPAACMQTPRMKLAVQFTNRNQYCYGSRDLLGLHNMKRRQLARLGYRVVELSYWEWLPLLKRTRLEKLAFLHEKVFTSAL

[7] = target: T7, HeLa cell extract proteins (Homo sapiens, UniProt Q9BUJ2)
T7 construct: endogenous in cells; host or cells: HeLa cell extract
T7 sequence (Q9BUJ2 1-856): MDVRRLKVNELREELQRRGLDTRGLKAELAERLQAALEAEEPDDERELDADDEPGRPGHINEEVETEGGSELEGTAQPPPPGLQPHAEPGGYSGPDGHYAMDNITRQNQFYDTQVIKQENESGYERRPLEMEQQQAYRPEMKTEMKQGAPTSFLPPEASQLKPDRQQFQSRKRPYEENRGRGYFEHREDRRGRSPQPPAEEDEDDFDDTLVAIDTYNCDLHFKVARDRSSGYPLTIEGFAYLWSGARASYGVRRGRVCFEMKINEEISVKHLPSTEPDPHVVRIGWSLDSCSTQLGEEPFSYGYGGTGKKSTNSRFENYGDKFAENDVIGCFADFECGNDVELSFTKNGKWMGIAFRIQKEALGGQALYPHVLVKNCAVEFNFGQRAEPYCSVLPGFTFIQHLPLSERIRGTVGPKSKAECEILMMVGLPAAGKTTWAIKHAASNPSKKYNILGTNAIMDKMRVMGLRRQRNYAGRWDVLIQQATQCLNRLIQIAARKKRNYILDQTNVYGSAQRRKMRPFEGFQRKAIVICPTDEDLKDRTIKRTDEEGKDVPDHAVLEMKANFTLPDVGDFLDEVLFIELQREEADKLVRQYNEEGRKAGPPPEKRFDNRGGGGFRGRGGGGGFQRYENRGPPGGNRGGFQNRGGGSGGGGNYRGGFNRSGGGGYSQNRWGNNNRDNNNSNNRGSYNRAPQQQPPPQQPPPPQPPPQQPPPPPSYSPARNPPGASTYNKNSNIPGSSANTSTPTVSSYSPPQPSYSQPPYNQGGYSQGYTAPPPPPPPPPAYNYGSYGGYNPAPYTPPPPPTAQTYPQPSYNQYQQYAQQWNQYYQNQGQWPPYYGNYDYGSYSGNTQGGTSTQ

[8] = target: T8, HeLa cell extract proteins (Homo sapiens, UniProt Q9BW27)
T8 construct: endogenous in cells; host or cells: HeLa cell extract
T8 sequence (Q9BW27 1-656): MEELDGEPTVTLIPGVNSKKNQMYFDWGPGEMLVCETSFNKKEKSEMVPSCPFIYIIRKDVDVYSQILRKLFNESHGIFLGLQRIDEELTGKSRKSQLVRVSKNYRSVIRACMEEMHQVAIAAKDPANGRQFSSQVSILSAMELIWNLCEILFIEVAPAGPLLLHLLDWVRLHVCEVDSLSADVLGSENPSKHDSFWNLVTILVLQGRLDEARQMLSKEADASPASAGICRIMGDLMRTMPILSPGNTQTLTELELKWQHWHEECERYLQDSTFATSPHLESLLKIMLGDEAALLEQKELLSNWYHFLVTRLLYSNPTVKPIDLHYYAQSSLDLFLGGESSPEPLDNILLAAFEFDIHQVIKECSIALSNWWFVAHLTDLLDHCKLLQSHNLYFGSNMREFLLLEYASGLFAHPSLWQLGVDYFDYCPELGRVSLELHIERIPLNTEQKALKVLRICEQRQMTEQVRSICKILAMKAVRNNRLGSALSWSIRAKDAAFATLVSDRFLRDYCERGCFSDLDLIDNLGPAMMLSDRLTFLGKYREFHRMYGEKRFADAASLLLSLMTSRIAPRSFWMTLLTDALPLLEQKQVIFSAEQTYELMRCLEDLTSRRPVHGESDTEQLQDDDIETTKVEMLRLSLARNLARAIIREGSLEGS

[9] = target: T9, HeLa cell extract proteins (Homo sapiens, UniProt Q9Y265)
T9 construct: endogenous in cells; host or cells: HeLa cell extract
T9 sequence (Q9Y265 whole entry): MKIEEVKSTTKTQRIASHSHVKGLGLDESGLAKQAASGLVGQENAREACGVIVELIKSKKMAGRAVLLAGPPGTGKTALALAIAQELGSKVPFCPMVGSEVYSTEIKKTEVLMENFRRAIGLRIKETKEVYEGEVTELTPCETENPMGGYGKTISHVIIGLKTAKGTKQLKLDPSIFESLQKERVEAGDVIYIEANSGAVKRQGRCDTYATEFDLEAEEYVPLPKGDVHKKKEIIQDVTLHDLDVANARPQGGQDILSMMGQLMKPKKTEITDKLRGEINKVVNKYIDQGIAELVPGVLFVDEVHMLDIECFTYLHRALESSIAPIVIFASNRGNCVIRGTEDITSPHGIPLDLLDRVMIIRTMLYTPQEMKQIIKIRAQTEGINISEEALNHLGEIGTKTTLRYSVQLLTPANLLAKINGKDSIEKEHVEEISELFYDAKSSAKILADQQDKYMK

[10] = HeLa, captured protein HNRNPUL1
[11] = HeLa, protein PGAM1 (SIMILAR TO PHOSPHOGLYCERATE MUTASE 1 ISOFORM 1.)

T1 sequence (P11940 whole entry): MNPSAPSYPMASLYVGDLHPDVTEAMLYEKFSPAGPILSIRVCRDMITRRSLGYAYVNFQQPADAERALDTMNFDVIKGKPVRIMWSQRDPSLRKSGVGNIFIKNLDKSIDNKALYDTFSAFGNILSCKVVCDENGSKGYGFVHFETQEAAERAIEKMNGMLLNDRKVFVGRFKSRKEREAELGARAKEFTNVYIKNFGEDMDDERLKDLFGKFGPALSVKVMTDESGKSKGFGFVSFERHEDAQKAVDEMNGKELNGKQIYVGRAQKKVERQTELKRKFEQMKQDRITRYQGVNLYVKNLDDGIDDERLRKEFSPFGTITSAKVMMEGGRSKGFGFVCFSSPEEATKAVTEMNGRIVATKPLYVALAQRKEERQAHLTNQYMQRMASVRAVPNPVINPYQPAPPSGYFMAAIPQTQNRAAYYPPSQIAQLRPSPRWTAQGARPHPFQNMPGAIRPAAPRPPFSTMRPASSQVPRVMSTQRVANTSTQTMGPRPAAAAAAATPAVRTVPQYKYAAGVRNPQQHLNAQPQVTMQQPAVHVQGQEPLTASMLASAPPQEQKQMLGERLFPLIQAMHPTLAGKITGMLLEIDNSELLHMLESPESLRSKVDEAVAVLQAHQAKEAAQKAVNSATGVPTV

SMILES	fold changes relative to vehicle control ([1]; HeLa, protein PABPC1)	fold changes relative to vehicle control ([2]; protein NQO2, HeLa)	fold changes relative to vehicle control ([3]; HeLa, protein PGAM1)	fold changes relative to vehicle control ([4]; HeLa, protein CAPZA1)	fold changes relative to vehicle control ([5]; HeLa, protein SEC23B)	fold changes relative to vehicle control ([6]; HeLa, protein FASTKD5)	fold changes relative to vehicle control [7, 10]	fold changes relative to vehicle control ([8]; protein NUP85, HeLa)	fold changes relative to vehicle control ([9]; HeLa, protein RUVBL1)	fold changes relative to vehicle control ([2]; HeLa, protein NQO2)	fold changes relative to vehicle control ([4]; protein CAPZA1, HeLa)	fold changes relative to vehicle control ([6]; captured protein FASTKD5, HeLa)	fold changes relative to vehicle control ([7]; protein HNRNPUL1, HeLa)	fold changes relative to vehicle control ([8]; captured protein NUP85, HeLa)	fold changes relative to vehicle control ([9]; protein RUVBL1, HeLa)	other results
Nc1nc2c(c(=O)[nH]1)N(C=O)C(CNc1ccc(C(=O)N[C@@H](CCC(=O)O)C(=O)O)cc1)CN2 (stereo partly drawn) [LEU, leucovorin]	0.98	1.1	1.05	0.89	0.98	0.87	0.99	0.82	1.06							
NCCCNc1ccc(C(=O)NC(CCC(=O)O)C(=O)O)cc1 (stereo not drawn) [compound 7]	1.05	1.04	0.99	1.09	1.09	0.97	1.07	0.95	1.2							
CCCCCCOc1cccc(Cc2cnc(N)nc2N)c1 [compound 2]	1.19				0.93					0.7	1.32	0.94	0.86	0.96	1.47	fold changes relative to vehicle control [3, 11]: 2.64 fold
CCCCCCOc1ccc(Cc2cnc(N)nc2N)cc1 [compound 1]	0.97				1.01					0.91	1.13	1.07	0.83	0.93	1.32	fold changes relative to vehicle control [3, 11]: 1.5 fold
Nc1nc2cccc(-c3ccccc3)c2n1Cc1ccc(Cl)c(Cl)c1 [compound 3]	0.94				1.04					0.99	1.15	1.06	0.89	0.9	1.04	fold changes relative to vehicle control ([3]; HeLa, protein PGAM1 (SIMILAR TO PHOSPH[…] 1 ISOFORM 1.)): 0.9 fold
NCCOCCOCC(=O)Nc1nc2ncc(CNc3ccc(C(=O)NC(CCC(=O)O)C(=O)O)cc3)nc2c(=O)[nH]1 (stereo not drawn) [compound 6]	0.97	0.72	1.41	1.11	0.88	0.88	1.05	0.93	1.07							
Nc1nc2[nH]cc(CCc3ccc(C(=O)N[C@@H](CCC(=O)O)C(=O)O)cc3)c2c(=O)[nH]1 [PTX, pemetrexed]																fold changes relative to vehicle control [1]: 0.96; fold changes relative to vehicle control [2]: 0.16; fold changes relative to vehicle control [3]: 1.24; fold changes relative to vehicle control [4]: 1.02; fold changes relative to vehicle control [5]: 0.91; fold changes relative to vehicle control [6]: 0.84; fold changes relative to vehicle control [7]: 1.04; fold changes relative to vehicle control [8]: 0.9; fold changes relative to vehicle control [9]: 0.92
